In the assay the target is T1, SARS-CoV-2 ORF3a (Severe acute respiratory syndrome coronavirus 2, UniProt P0DTC3).
T1 construct: gene 3a
The experiment in a line: isothermal titration calorimetry. Type of assay: binding. In general terms: ITC needs no label: the signal is the heat of the interaction.

Molecules are shown by their SMILES.

T1 sequence (P0DTC3 whole entry): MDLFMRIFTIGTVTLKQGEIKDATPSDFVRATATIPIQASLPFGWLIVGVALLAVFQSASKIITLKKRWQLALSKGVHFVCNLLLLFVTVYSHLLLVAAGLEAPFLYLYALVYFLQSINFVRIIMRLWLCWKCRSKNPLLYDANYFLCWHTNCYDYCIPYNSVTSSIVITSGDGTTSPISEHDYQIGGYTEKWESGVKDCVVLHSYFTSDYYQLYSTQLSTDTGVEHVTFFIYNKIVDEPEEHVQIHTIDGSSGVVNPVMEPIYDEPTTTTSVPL

As a reminder, the Kd is the concentration at which binding is half-saturated. A lower Kd goes with higher affinity. Take `NC(=O)c1ccc(-c2nc(-c3ccc4c(c3)OCO4)c(-c3ccccn3)[nH]2)cc1` [SB431542]: the Kd is 0.22 ± 0.0681 µM.

The record behind these values is article PMC12455996, “TGF-β inhibitor SB431542 suppresses SARS-CoV-2 replication through multistep inhibition” (Journal of Virology, 2025).
